# Source: ChEMBL document CHEMBL5653615 (J Biol Chem, 2013)
# Experiments:
# [1] = biological target: RAC-beta serine/threonine-protein kinase (Homo sapiens) (UniProt P31751); assay: Inhibition of human AKT2 at 18.6 nM by HotSpot assay relative to control
# [2] = biological target: T1, TGF-beta receptor type-1 (Homo sapiens) (UniProt P36897); assay: Inhibition of human ALK5 at 18.6 nM by HotSpot assay relative to control
# T1 sequence (whole entry): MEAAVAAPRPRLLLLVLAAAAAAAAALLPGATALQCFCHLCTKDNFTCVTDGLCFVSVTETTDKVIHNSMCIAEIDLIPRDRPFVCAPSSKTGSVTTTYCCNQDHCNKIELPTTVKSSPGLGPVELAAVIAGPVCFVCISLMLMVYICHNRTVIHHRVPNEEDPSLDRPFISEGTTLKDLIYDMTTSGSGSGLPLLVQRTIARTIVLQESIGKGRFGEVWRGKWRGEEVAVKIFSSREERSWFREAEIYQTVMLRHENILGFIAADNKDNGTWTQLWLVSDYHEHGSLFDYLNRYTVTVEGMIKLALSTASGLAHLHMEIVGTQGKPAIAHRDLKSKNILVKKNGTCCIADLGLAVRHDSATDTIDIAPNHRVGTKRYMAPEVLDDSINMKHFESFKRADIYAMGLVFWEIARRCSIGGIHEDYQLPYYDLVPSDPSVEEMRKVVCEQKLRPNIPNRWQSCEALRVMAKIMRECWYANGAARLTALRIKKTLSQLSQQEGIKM
# [3] = biological target: Tyrosine-protein kinase BTK (Homo sapiens) (UniProt Q06187); assay: Inhibition of human BTK at 18.6 nM by HotSpot assay relative to control
# [4] = biological target: Casein kinase I isoform alpha (Homo sapiens) (UniProt P48729); assay: Inhibition of human CK1a1 at 18.6 nM by HotSpot assay relative to control
# [5] = biological target: T2, Ephrin type-B receptor 1 (Homo sapiens) (UniProt P54762); assay: Inhibition of human EPHB1 at 18.6 nM by HotSpot assay relative to control
# T2 sequence (whole entry): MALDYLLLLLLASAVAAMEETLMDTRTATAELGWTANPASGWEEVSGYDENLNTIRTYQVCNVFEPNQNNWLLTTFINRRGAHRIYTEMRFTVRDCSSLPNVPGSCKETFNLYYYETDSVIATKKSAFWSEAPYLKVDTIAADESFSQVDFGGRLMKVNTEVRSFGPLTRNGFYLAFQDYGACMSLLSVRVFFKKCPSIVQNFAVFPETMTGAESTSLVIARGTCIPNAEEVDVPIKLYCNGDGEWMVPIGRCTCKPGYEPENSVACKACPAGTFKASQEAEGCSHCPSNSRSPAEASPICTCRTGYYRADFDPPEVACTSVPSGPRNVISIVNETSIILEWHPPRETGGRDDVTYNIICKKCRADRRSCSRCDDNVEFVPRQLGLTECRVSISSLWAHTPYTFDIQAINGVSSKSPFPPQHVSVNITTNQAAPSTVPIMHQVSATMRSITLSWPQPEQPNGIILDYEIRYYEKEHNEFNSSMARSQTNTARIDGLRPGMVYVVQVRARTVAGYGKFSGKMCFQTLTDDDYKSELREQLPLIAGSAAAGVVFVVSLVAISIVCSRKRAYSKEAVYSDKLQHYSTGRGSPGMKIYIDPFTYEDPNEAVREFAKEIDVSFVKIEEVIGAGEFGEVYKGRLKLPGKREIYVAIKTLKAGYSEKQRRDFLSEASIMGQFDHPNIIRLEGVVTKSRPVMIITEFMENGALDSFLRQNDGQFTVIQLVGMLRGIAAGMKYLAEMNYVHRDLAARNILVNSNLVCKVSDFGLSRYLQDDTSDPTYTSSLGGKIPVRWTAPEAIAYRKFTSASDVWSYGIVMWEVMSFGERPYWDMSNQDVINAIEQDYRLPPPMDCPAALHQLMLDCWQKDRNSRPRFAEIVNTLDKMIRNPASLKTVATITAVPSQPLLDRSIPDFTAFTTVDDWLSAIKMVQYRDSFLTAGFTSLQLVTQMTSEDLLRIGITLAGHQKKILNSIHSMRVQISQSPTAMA
# [6] = biological target: Tyrosine-protein kinase Fer (Homo sapiens) (UniProt P16591); assay: Inhibition of human FER at 18.6 nM by HotSpot assay relative to control
# [7] = biological target: Serine/threonine-protein kinase N1 (Homo sapiens) (UniProt Q16512); assay: Inhibition of human PRK1 at 18.6 nM by HotSpot assay relative to control
# [8] = biological target: Serine/threonine-protein kinase SIK2 (Homo sapiens) (UniProt Q9H0K1); assay: Inhibition of human SIK2 at 18.6 nM by HotSpot assay relative to control
# [9] = biological target: Calcium/calmodulin-dependent protein kinase type 1B (Homo sapiens) (UniProt Q6P2M8); assay: Inhibition of human CAMK1b at 1.82 nM by HotSpot assay relative to control
# [10] = biological target: T3, Serine/threonine-protein kinase Nek11 (Homo sapiens) (UniProt Q8NG66); assay: Inhibition of human NEK11 at 1.82 nM by HotSpot assay relative to control
# T3 sequence (whole entry): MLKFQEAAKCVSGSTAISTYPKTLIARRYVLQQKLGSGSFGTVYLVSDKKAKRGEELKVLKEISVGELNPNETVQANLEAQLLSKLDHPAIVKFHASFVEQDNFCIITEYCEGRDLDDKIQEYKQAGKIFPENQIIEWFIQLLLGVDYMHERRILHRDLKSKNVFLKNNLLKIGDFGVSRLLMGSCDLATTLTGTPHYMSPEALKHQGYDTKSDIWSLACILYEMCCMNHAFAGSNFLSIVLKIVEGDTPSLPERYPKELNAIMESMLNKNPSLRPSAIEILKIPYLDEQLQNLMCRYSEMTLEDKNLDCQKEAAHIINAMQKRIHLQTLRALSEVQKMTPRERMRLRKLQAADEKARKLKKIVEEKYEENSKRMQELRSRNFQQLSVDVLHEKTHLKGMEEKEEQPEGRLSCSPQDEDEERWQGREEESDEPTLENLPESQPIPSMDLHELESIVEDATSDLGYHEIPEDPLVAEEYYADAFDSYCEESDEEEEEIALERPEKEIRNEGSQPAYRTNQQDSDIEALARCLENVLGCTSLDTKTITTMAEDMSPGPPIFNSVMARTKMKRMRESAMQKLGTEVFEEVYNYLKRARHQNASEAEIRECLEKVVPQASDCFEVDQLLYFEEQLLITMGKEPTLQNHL
# Casein kinase I isoform alpha (Homo sapiens), sequence (P48729 2-337 limits assumed): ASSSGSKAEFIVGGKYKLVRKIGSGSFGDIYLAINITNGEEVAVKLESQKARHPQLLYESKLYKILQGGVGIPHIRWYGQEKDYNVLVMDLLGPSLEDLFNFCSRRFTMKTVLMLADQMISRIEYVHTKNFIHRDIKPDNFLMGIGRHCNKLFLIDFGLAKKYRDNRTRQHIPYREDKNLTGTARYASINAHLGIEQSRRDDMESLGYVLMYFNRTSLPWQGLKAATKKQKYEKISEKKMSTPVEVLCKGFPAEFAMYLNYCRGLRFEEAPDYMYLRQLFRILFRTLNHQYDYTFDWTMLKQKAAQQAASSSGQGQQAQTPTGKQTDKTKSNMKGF
# Calcium/calmodulin-dependent protein kinase type 1B (Homo sapiens), sequence (Q6P2M8 whole entry): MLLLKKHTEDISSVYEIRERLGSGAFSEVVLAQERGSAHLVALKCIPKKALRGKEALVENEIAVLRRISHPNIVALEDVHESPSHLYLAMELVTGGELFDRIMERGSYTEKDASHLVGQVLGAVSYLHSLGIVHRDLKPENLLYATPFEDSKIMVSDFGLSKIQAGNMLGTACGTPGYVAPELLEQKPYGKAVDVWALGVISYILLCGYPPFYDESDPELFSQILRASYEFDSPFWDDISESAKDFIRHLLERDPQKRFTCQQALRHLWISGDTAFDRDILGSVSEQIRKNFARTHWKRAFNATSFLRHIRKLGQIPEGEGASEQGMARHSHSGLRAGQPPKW
# RAC-beta serine/threonine-protein kinase (Homo sapiens), sequence (P31751 whole entry): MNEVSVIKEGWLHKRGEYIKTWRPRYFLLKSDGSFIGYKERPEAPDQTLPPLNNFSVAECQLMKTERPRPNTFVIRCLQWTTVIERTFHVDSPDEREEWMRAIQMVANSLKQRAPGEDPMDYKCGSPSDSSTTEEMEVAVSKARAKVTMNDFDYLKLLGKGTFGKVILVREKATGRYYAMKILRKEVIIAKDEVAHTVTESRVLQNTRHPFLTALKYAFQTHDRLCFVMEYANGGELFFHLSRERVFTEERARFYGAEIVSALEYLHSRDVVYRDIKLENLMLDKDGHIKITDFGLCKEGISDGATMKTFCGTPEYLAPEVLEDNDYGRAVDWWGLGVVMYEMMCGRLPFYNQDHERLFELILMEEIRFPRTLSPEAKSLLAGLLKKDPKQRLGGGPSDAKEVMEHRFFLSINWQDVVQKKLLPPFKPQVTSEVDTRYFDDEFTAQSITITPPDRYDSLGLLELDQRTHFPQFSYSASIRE
# Serine/threonine-protein kinase N1 (Homo sapiens), sequence (Q16512 2-942 limits assumed): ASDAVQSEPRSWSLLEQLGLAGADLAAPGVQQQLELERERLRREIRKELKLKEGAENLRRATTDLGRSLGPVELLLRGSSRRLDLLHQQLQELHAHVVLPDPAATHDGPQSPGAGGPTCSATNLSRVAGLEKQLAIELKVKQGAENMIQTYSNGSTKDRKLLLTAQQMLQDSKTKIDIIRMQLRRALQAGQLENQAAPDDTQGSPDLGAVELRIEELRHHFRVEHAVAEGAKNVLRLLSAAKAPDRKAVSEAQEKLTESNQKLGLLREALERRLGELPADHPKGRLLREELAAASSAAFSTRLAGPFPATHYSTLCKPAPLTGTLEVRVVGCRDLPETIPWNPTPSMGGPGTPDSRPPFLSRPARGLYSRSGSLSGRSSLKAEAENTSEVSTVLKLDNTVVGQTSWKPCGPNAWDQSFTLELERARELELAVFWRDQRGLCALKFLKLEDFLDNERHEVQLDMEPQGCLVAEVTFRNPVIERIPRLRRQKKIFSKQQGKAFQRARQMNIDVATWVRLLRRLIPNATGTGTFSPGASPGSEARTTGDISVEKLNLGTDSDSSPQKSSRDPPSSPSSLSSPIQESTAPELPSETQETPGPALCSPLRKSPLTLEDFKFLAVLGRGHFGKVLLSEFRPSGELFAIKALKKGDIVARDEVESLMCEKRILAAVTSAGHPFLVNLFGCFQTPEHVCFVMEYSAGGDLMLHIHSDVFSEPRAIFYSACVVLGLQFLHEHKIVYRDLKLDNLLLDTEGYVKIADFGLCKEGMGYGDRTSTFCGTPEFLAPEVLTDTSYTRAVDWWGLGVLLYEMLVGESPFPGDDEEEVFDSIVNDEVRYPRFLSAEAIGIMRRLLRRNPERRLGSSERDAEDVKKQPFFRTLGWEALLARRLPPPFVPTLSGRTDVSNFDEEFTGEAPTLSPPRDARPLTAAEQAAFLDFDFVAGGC
# Tyrosine-protein kinase Fer (Homo sapiens), sequence (P16591 whole entry, looked up): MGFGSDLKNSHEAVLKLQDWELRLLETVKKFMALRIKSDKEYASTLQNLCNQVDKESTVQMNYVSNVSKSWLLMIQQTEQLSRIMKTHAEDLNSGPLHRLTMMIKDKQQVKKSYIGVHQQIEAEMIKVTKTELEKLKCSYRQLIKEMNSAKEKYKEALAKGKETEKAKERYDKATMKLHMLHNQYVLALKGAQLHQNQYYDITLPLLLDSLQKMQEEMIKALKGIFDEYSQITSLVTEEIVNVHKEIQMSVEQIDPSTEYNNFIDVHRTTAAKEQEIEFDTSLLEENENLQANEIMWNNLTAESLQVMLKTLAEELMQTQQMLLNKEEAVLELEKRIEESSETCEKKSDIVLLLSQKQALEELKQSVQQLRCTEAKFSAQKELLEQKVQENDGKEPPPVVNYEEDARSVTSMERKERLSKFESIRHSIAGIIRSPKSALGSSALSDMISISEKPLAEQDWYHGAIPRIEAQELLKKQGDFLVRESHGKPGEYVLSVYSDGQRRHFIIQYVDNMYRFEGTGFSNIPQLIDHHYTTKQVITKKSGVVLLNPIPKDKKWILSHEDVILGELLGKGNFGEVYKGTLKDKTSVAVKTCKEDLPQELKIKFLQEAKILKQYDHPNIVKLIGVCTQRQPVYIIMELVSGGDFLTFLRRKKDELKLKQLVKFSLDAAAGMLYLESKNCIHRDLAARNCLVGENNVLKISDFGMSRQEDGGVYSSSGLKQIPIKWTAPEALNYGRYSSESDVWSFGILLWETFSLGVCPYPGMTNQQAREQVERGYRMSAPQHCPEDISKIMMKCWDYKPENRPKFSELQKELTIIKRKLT
# Serine/threonine-protein kinase SIK2 (Homo sapiens), sequence (Q9H0K1 whole entry, looked up): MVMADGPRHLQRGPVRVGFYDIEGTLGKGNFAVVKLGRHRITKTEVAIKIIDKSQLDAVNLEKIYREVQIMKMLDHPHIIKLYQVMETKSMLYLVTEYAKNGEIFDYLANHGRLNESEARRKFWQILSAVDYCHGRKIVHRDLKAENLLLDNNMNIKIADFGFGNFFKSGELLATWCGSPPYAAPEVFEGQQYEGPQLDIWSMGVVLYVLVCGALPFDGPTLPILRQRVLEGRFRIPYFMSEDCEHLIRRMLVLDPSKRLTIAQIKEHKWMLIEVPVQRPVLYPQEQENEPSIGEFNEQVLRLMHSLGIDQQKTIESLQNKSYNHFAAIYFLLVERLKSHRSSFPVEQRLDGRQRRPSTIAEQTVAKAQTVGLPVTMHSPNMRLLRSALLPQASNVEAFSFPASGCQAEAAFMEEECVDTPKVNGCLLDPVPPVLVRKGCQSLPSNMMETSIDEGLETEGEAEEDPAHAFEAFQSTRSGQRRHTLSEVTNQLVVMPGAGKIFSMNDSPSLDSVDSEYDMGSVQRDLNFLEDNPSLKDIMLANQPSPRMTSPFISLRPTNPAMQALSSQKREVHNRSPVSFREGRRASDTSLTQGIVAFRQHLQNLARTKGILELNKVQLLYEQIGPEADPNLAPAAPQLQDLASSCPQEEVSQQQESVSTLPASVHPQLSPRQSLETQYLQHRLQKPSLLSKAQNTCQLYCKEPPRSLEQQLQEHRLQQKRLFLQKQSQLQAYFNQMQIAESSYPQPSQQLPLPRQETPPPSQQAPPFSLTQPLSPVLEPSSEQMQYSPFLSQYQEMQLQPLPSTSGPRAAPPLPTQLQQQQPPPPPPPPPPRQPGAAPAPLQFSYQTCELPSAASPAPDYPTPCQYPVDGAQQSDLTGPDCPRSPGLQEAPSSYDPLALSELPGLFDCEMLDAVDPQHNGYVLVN
# Tyrosine-protein kinase BTK (Homo sapiens), sequence (Q06187 whole entry, canonical isoform): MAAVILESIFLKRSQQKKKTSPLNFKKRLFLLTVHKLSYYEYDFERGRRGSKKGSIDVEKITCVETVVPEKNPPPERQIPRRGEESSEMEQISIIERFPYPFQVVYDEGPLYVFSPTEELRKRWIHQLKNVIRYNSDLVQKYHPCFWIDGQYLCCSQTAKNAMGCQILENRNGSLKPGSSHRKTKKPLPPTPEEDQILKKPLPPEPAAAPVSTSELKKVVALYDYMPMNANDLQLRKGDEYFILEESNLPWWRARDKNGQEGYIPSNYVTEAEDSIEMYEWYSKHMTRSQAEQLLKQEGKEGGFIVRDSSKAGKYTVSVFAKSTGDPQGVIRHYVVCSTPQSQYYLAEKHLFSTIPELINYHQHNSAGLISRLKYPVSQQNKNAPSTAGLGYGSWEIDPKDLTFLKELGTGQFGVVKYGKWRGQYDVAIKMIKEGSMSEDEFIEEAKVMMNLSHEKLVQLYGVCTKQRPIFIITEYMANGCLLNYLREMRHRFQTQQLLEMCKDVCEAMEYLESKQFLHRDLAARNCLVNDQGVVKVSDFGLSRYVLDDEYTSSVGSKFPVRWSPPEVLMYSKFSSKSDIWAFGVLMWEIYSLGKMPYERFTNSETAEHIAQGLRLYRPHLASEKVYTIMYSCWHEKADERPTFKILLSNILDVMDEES
inhibition [1] [%],inhibition [2] [%],inhibition [3] [%],inhibition [4] [%],inhibition [5] [%],inhibition [6] [%],inhibition [7] [%],inhibition [8] [%],inhibition [9] [%],inhibition [10] [%],SMILES
0.3,2.47,-1.94,4.32,-4.68,-4.79,-7.69,-8.94,,,C[C@]1(O)C[C@@H](c2nc(-c3ccc4ccc(-c5ccccc5)nc4c3)c3c(N)nccn32)C1
,,,,,,,,-2.9,-5.31,C[C@@]1(C(=O)Nc2ccc(F)nc2)CCCN1c1nc(Nc2cc(C3CC3)n[nH]2)c2cccn2n1
